Measurements reported in patent US9079048B2, “Cosmetic or dermopharmaceutical composition comprising enkephalin-derived peptides for reducing and/or eliminating facial wrinkles” (Lipotec, S.A., priority 2005, dated 2015).
Non-standard residues stand in square brackets, D forms with d. No end group written: not given here.

Assays:
Assay type in all cases: cell-based
[1] = system: primary cultures of rat hippocampus neurons; assay: Neuronal exocytosis of [3H]-L-glutamate; conditions: 1 mM peptide alone, 1 hour at 37° C; depolarization with 75 mM KCl and 2 mM CaCl2; FIG. 4
Method: To determine if the enkephalin-derived peptides inhibit the neuronal exocytosis of neurotransmitters, their activity on the release of the neurotransmitter L-glutamate from primary cultures of rat hippocampus neurons was monitored. The exocytosis of this neurotransmitter in neuronal cultures can be achieved by means of the […] depolarization of the cells. The primary cultures of rat embryo hippocampus are prepared by means of conventional methods [Blanes-Mira, C., Merino, J. M., Valera, E., Fernandez-Ballester, G., Gutierrez, L. M., Viniegra, S., Pérez-Payá, E. and Ferrer-Montiel, A. Small peptides patterned after the N-terminus domain of SNAP25 inhibit SNARE complex assembly and regulated exocytosis. J. Neurochem. 88, 124-135] and are maintained in culture for 14 days in an incubator at 37° C. and 5% CO2. The cultures are incubated with [^3H]-L-glutamine to load them with [^3H]-L-glutamate for 3 hours at 37° C. The excess [^3H]-L-glutamine is then washed and they are incubated with 1 mM of the peptides to be studied for 1 hour at 37° C. The release of [^3H]-L-glutamate is carried out by means of depolarization with 75 mM KCl and 2 mM CaCl2 buffered in physiological buffer for 10 minutes at 37° C. The culture medium is collected and the amount of [^3H]-L-glutamate is quantified in a beta radioactivity counter. The results are standardized with respect to the release of [^3H]-L-glutamate in the absence of the peptide and are corrected with respect to the baseline release in the absence of calcium. […] The incubation with the enkephalin-derived peptide defined by SEQ ID NO: 6 caused a 4% inhibition.
In order to determine if the activity of enkephalin-derived peptides is additive and/or synergistic with the exocytosis inhibiting peptide Argireline®, defined by SEQ ID NO: 5, the potency of both peptides for separately and jointly inhibiting the electrically evoked release of [^3H]-L-glutamate in the presence of Ca^2+ was compared. […]

[2] = system: neurons in primary cultures of rat dorsal root ganglia; assay: Neuronal excitability, action potentials evoked by chemical stimulus (pH 6.0), patch clamp current-clamp; conditions: 1 mM peptide
Method: (§1) The activity of the enkephalin-derived peptide defined by SEQ ID NO: 7 (Tyr-D-Ala-Gly-Phe-Leu) on the excitability of neurons was studied in primary cultures of rat dorsal root ganglia. These neurons were extracted following widely known methods [Nicol, G. D., Lopshire, J. C. and Pafford, C. M. (1997) Tumor necrosis factor enhances the capsaicin sensitivity of rat sensory neurons. J. Neurosci. 17, 975-982]. The neurons were cultured in a DMEM medium supplemented with 10% bovine serum, 5% horse serum and 50 ng/mL NGF for 2 days and the electrical activity was followed by means of a patch clamp technique with a conventional electrophysiology equipment in the current-clamp configuration [Hille, B. (2001) Ion channels of excitable membranes. Third Ed. Sinauer Associates, Inc]. Two neuron stimulation protocols were used to determine the inhibitory effect of the enkephalin-derived peptide defined by SEQ ID NO: 7.
The neurons were first stimulated by means of a chemical stimulus such as the exposure to a buffered solution at pH 6.0. In these conditions, acid-dependent channels depolarizing the neuronal membrane are activated, triggering action potentials (FIG. 1). […] The inhibition of neuronal excitability caused by the enkephalin-derived peptide defined by SEQ ID NO: 7 is reversible as shown by the recovery of said excitability after eliminating the peptide from the extracellular medium. […]

[3] = system: neurons in primary cultures of rat dorsal root ganglia; assay: Neuronal excitability, electrically evoked action potentials (40 mV depolarizing stimulus), patch clamp current-clamp; conditions: 1 mM peptide
Method: as §1
Secondly, the effect of the enkephalin-derived peptide defined by SEQ ID NO: 7 on electrically evoked neuronal activity was evaluated. To that end, the neurons were excited with a depolarizing electrical stimulus of 40 mV from their rest potential. As a result, the repetitive action potentials were triggered throughout the electrical stimulation time (FIG. 2). […]

Substance	inhibition of exocytosis of [3H]-L-glutamate [1] [%]	effect on action potentials evoked by exposure to acidic extracellular medium ([2]; buffered solution at pH 6.0, FIG. 1)	reversibility of the inhibition of neuronal excitability after eliminating the peptide ([2]; pH 6.0 stimulus, after washing)	reversibility of the inhibition of electrically evoked action potentials ([3]; after washing)	effect on electrically evoked action potentials ([3]; depolarizing electrical stimulus of 40 mV from rest potential, FIG. 2)
Argireline®: exocytosis inhibiting peptide, acetyl hexapeptide-8 marketed by Lipotec, residues 12 to 17 of protein SNAP-25 (Ac-EEMQRR-NH2; listed as Homo sapiens) [reference compound]	18	–	–	–	–
Tyr-D-Ala-Gly-Phe-Leu (Y[dA]GFL; listed as Homo sapiens) [SEQ ID NO: 7, enkephalin-derived peptide]	12	inhibition of the action potentials	reversible	partially reversible	decrease in the frequency and amplitude of the action potentials
Tyr-Gly-Phe-Leu (YGFL; printed: Tyr-Gly-Phe-Leu) [SEQ ID NO: 6, enkephalin-derived peptide]	4	–	–	–	–
